Test results published in patent EP2845588A1, “PIN1 inhibitors for use in the prevention and/or treatment of theileriosis, and related applications” (Centre National de la Recherche Scientifique (CNRS), priority 2013, dated 2015).
Where two headings read alike, the source gives them in different places.

What was measured:
PIN1 [1] = molecular target: T1, PIN1 (Homo sapiens, UniProt Q13526); details: cited from earlier work; for IC50: read-out: PIN1 inhibition IC50
[2] = test system: non-parasitized BL3 cells; test: Cell proliferation, live cell count after trypan blue exclusion, BL3; format: cell-based, bovine; details: BL3 / uninfected cells
Protocol: All infected bovine cell lines used in this study were previously described: TBL3 cells were derived from in vitro infection of the spontaneous bovine-B lymphosarcoma cell line, BL3, with Hissar stock of T.annulata. The TpMD409 lymphocyte cell line are infected with T. parva. The culture conditions of these cell lines were previously described by Moreau et al., 1999. Cells were cultured in RPMI 1640 (Gibco-BRL, Paisley, UK), supplemented with 10% heat-inactivated Fetal calf serum, 4mM L-Glutamine, 25mM HEPES, 10µM β-mercaptoethanol and 100µg/ml penicillin/streptomycin in a humidified 5%CO2 atmosphere at 37°C. HepG2, NIH/3T3 and MEF cells lines were cultured in DMEM (Gibco-BRL, Paisley, UK), supplemented with 10% heat-inactivated Fetal calf serum, 4mM L-Glutamine, 25 mM HEPES, 10µM β-mercaptoethanol and 100µg/ml penicillin/streptomycin in a humidified 5% CO2 atmosphere at 37°C. Cell numbers, as judged by Trypan Blue exclusion test, were determined by counting cells using a Countess automated cell counter (Invitrogen, CA, USA). The anti-parasite drug Buparvaquone (BW720c) was used at 200ng/ml for 72 hours. BW720c has no effect on growth of uninfected cells.
Cells were treated with either Juglone at 5 µM resuspended in Ethanol (Sigma, St Louis, MO, Ref.: H47003), or PiB at 1 µM resuspended in DMSO (Sigma, Ref.: B7688), or Dimethyloxalylglycine DMOG at 0.5 mM resuspended in DMSO (Tebu-bio, MO, USA).

[3] = test system: FBW7 and c-Jun mRNA in TBL3 cells; test: RT-qPCR of FBW7 and c-Jun mRNA in TBL3 cells; format: cell-based, bovine
Protocol: Total cellular RNAs were extracted using an RNeasy Plus Mini Kit (Qiagen, Hilden, Germany) and parasite RNAs were extracted using the classical Trizol Protocol. cDNA synthesis was performed with the Reverse Transcriptase Superscript III (Invitrogen, CA, USA).
Quantitative PCR amplification was performed in the ABI 7500 machine (Applied Biosystems, CA, USA) using the Sybr Green reagent (Applied Biosystems, CA, USA) using the primers listed in Table 5 below. The detection of a single product was verified by dissociation curve analysis. Relative quantities of mRNA were analyzed using the delta Ct method. The βactin qPCR was used for normalization. Table 5: qPCR primers

PIN1 [4] = molecular target: T1, PIN1; details: cited from earlier work

T1 sequence (Q13526 whole entry): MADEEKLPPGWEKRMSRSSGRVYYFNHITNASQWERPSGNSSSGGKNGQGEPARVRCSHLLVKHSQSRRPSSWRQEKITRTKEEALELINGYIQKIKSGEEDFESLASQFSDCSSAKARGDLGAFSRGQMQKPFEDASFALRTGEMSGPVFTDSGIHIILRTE

In the case of `S=C(SC(=S)N1CCCCC1)N1CCCCC1` [1-Piperidinecarbodithioic acid, anhydrosulfide], the IC50 (PIN1 [1]) is given as 4.1 µM.

In the case of `CN1C(=O)c2ccc3c4c(ccc(c24)C1=O)C(=O)N(C)C3=O` [2,7-Dimethylbenzo[Imn][3,8]phenanthroline-1,3,6,8(2H,7H)-tetrone], the IC50 (PIN1 [1]) is listed as 2 µM.

In the case of `O=C1Nc2ccc([N+](=O)[O-])cc2/C1=C1/Nc2ccccc2/C1=N/O` [(3Z)-3-[(3Z)-3-hydroxyiminoindolin-2-ylidene]-5-nitro-indolin-2-one], the “PIN1 inhibition (Ki and/or IC50)” value (PIN1 [1]; cell prints neither Ki nor IC50) is given as 0.5 to 2.5 µM.

In the case of `CCOC(=O)CN1C(=O)c2ccc3c4ccc5c6c(ccc(c7ccc(c2c37)C1=O)c64)C(=O)N(CC(=O)OCC)C5=O` [Diethyl 2,2'-(1,3,8,10-tetraoxo-1,3,8,10-tetrahydroisoquinolino[4 ',5',6':6,5,10]anthra[2,1,9-def]isoquinoline-2,9-diyl)diacetate], the IC50 (PIN1 [1]) is given as 1.5 µM.

In the case of `CCOC(=O)CN1C(=O)c2cccc3cccc(c23)C1=O` [Ethyl (1,3-dioxo-1H-benzo[de]isoquinolin-2(3H)-yl)acetate], the IC50 (PIN1 [1]) is given as 5 µM.

For `O=C1C=CC(=O)c2c(O)cccc21` [Juglone, 5-Hydroxy-1,4-naphthlenedione], the “proliferation of non-parasitized cells” value [2] was “no effect” and the mRNA expression [3] was “no effect”.

For “Ac-Lys(N-biotinoyl)-Ala-Ala-Bth-D-Thr(PO3H2)-Pip-Nal-Gln-NH2”, the Ki (PIN1 [4]; read-out: PIN1 inhibition Ki) is given as 1.2 nM.

In the case of Ac-Phe-Phe-pSer-Ψ[(Z)CHdC]-Pro-Arg-NH2, the IC50 (PIN1 [4]; read-out: PIN1 inhibition IC50) is listed as 1300 nM and the Ki (PIN1 [4]; read-out: PIN1 inhibition Kis) is listed as 1740 nM.

For CRYPEVEIC, the Ki (PIN1 [4]; read-out: PIN1 inhibition Ki) is listed as 520 nM.
